For one assay, the system named is GBM cells. The assay can be described thus: Cell viability, RNA helicase inhibitors alone or with TMZ (FIG. 9). The class given is cell-based. As to conditions: for synergy on cell viability: combination therapy with TMZ; for cell viability: single agent.
For assay [1], the system named is LOC expression in mIDH1 (IDH1 R132H/WT) LN18 cells. The assay can be described thus: qPCR of LOC expression in mIDH1 cells. It counts as cell-based, human. An excerpt:
FIG. 6: LOC: DHX15 serves as a targetable vulnerability in wtIDH1 high-grade glioma. A) LOC expression in different IDH mutation status across different WHO grade gliomas based on RNA-seq data from CGGA. B) qPCR of LOC expression in wtIDH1 LN18 cells or mIDH1 clones. Those clones were generated by base editing. C) qPCR of LOC expression in wtIDH1 and mIDH1 LN18 cells treated with or without mIDH1 inhibitor AGI-5198. D) qPCR of LOC expression in wtIDH1 and mIDH1 LN18 cells with or without DMNT inhibitor 5-Azac treatment. E) Protein lysates from wtIDH1 and mIDH1 LN18 cells were analyzed for levels of phosphorylated and total p65 and p38 proteins by western blot. F) wtIDH1 and mIDH1 LN18 cells were transfected with empty vector (EV) or expression vectors of LOC or mutant version of LOC (LOC-M2). After 48 hours cells were harvested and endogenous DHX15 or p65 was immunoprecipitated with antibody against DHX15 or p65. IP samples were analyzed by subsequent immunoblot for the indicated proteins at indicated time points. G-H) Cell viability assay of wtIDH1 G) and mIDH1 LN18 cells H) treated with or without DHX inhibitor. I) Fluorescence imaging of wtIDH1 and mIDH1 GBM orthotopic xenograft models with or without DHX inhibitor treatment. J) Quantification of tumor signal intensity obtained from I). […]

Consider `COc1ccc([C@@]23Oc4cc(OC)cc(OC)c4[C@]2(O)[C@H](O)[C@H](C(=O)N(C)C)[C@H]3c2ccccc2)cc1` [Rocaglamide], for which, in the assay with GBM cells, the “synergy on cell viability” value was “does not show synergistic inhibition of cell viability” and the cell viability result was “inhibition of cell viability”.
`Cc1ccccc1C(C(=O)NC1CCCCC1)N(C(=O)Cn1ccnc1C)c1cccc(F)c1` (stereo not drawn) [selective mutant IDH1^R132H inhibitor]: in assay [1] (IDH1 R132H/WT cells, mIDH1 inhibitor treatment, FIG. 6C), the LOC expression entry was “restored the LOC expression”.
For `Nc1ncn([C@@H]2O[C@H](CO)[C@@H](O)[C@H]2O)c(=O)n1` [5-AzaC, 5-Azacytidine], in assay [1] (DNA methyltransferase inhibitor treatment, FIG. 6D), the “IDH1 mutation induced hypermethylation phenotype (diminished LOC expression)” value is listed as “abrogate this hypermethylation phenotype”.
For the molecule RK-33, in the assay on GBM cells, the “synergy on cell viability” value is “does not show synergistic inhibition of cell viability” and the cell viability entry is “inhibition of cell viability”.

Values taken from US20250340946A1, “METHOD OF PROGNOSING AND TREATING GLIOMA” (Agency for Science, Technology and Research, priority 2022, published 2025).
